ChEMBL document CHEMBL1201862, “PubChem BioAssay data set” (2004)
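How tested: cells in 96-well plates exposed to compound for 48 hours at five concentrations. GI50: concentration for 50% inhibition of growth.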 Calls of active or inactive are those of the source. Cut-off read from the data, not from the text of the source: active = GI50 up to about 1.1 µM and inactive = higher.

Legend:
Experiment in all cases: NCI anticancer screen, dose series, 48 h
KM12 = tested on: KM12
CAKI-1 = tested on: CAKI-1
SF-295 = tested on: SF-295
SF-268 = tested on: SF-268
NCI-H23 = tested on: NCI-H23
XF498 = tested on: XF498
UACC-257 = tested on: UACC-257
SNB-78 = tested on: SNB-78
LXFL 529 = tested on: LXFL 529
HCC 2998 = tested on: HCC 2998
LOX IMVI = tested on: LOX IMVI
UO-31 = tested on: UO-31
HOP-62 = tested on: HOP-62
UACC-62 = tested on: UACC-62
OVCAR-4 = tested on: OVCAR-4
A498 = tested on: A498
OVCAR-8 = tested on: OVCAR-8
K562 = tested on: K562
SK-MEL-5 = tested on: SK-MEL-5
IGROV-1 = tested on: IGROV-1
SNB-75 = tested on: SNB-75
SF-539 = tested on: SF-539
OVCAR-5 = tested on: OVCAR-5
SK-MEL-28 = tested on: SK-MEL-28
A549 = tested on: A549
HOP-18 = tested on: HOP-18
DMS-114 = tested on: DMS-114
EKVX = tested on: EKVX
SW-620 = tested on: SW-620
HOP-92 = tested on: HOP-92
HCT-116 = tested on: HCT-116
NCI-H460 = tested on: NCI-H460
786-0 = tested on: 786-0
HT-29 = tested on: HT-29
DMS-273 = tested on: DMS-273
U-251 = tested on: U-251
OVCAR-3 = tested on: OVCAR-3
SN12C = tested on: SN12C
M19-MEL = tested on: M19-MEL
M14 = tested on: M14
CCRF-CEM = tested on: CCRF-CEM
HL-60 = tested on: HL-60
NCI-H522 = tested on: NCI-H522
RXF 631 = tested on: RXF 631
DLD-1 = tested on: DLD-1
SR = tested on: SR
RPMI-8226 = tested on: RPMI-8226
MOLT-4 = tested on: MOLT-4
TK-10 = tested on: TK-10
SNB-19 = tested on: SNB-19
SK-OV-3 = tested on: SK-OV-3
HCT-15 = tested on: HCT-15
ACHN = tested on: ACHN
KM-20L2 = tested on: KM-20L2
SK-MEL-2 = tested on: SK-MEL-2
RXF 393 = tested on: RXF 393
Malme-3M = tested on: Malme-3M
NCI-H226 = tested on: NCI-H226
COLO 205 = tested on: COLO 205

COc1ccc2c(c1)C(=O)N1CCOC1C2C(=O)O (stereo not drawn)
GI50 (KM12): > 100 µM (inactive)
GI50 (CAKI-1): > 100 µM (inactive)
GI50 (SF-295): 4.08 µM (inactive)
GI50 (SF-268): > 100 µM (inactive)
GI50 (NCI-H23): > 100 µM (inactive)
GI50 (XF498): > 100 µM (inactive)
GI50 (UACC-257): > 100 µM (inactive)
GI50 (SNB-78): > 100 µM (inactive)
GI50 (LXFL 529): > 100 µM (inactive)
GI50 (HCC 2998): > 100 µM (inactive)
GI50 (LOX IMVI): > 100 µM (inactive)
GI50 (UO-31): > 100 µM (inactive)
GI50 (HOP-62): > 100 µM (inactive)
GI50 (UACC-62): > 100 µM (inactive)
GI50 (OVCAR-4): > 100 µM (inactive)
GI50 (A498): > 100 µM (inactive)
GI50 (OVCAR-8): > 100 µM (inactive)
GI50 (K562): > 100 µM (inactive)
GI50 (SK-MEL-5): > 100 µM (inactive)
GI50 (IGROV-1): > 100 µM (inactive)
GI50 (SNB-75): > 100 µM (inactive)
GI50 (SF-539): > 100 µM (inactive)
GI50 (OVCAR-5): > 100 µM (inactive)
GI50 (SK-MEL-28): > 100 µM (inactive)
GI50 (A549): > 100 µM (inactive)
GI50 (HOP-18): > 100 µM (inactive)
GI50 (DMS-114): > 100 µM (inactive)
GI50 (EKVX): > 100 µM (inactive)
GI50 (SW-620): > 100 µM (inactive)
GI50 (HOP-92): > 100 µM (inactive)
GI50 (HCT-116): > 100 µM (inactive)
GI50 (NCI-H460): > 100 µM (inactive)
GI50 (786-0): > 100 µM (inactive)
GI50 (HT-29): > 100 µM (inactive)
GI50 (DMS-273): 0.693 µM (active)
GI50 (U-251): > 100 µM (inactive)
GI50 (OVCAR-3): > 100 µM (inactive)
GI50 (SN12C): > 100 µM (inactive)
GI50 (M19-MEL): > 100 µM (inactive)
GI50 (M14): > 100 µM (inactive)
GI50 (CCRF-CEM): > 100 µM (inactive)
GI50 (HL-60): > 100 µM (inactive)
GI50 (NCI-H522): > 100 µM (inactive)
GI50 (RXF 631): > 100 µM (inactive)
GI50 (DLD-1): > 100 µM (inactive)
GI50 (SR): > 100 µM (inactive)
GI50 (RPMI-8226): > 100 µM (inactive)
GI50 (MOLT-4): > 100 µM (inactive)
GI50 (TK-10): > 100 µM (inactive)
GI50 (SNB-19): > 100 µM (inactive)
GI50 (SK-OV-3): > 100 µM (inactive)
GI50 (HCT-15): > 100 µM
GI50 (ACHN): > 100 µM (inactive)
GI50 (KM-20L2): > 100 µM (inactive)

CC(C)(C)[Si](Nc1ccccc1)(c1ccccc1)c1ccccc1
GI50 (KM12): 13.9 µM (inactive)
GI50 (SF-295): 13.3 µM (inactive)
GI50 (SF-268): 13.5 µM (inactive)
GI50 (NCI-H23): 16.9 µM (inactive)
GI50 (SK-MEL-2): 18.4 µM (inactive)
GI50 (XF498): 14.6 µM (inactive)
GI50 (UACC-257): 14.9 µM (inactive)
GI50 (SNB-78): 16.4 µM (inactive)
GI50 (RXF 393): 13.6 µM (inactive)
GI50 (HCC 2998): 16.1 µM (inactive)
GI50 (LOX IMVI): 12.2 µM (inactive)
GI50 (UO-31): 5.79 µM (inactive)
GI50 (HOP-62): 16.8 µM (inactive)
GI50 (UACC-62): 10.6 µM (inactive)
GI50 (Malme-3M): 22.1 µM (inactive)
GI50 (OVCAR-4): 13.9 µM (inactive)
GI50 (A498): 17.3 µM (inactive)
GI50 (NCI-H226): 15.3 µM (inactive)
GI50 (OVCAR-8): 17.7 µM (inactive)
GI50 (K562): 8.26 µM (inactive)
GI50 (SK-MEL-5): 17.5 µM (inactive)
GI50 (IGROV-1): 14.7 µM (inactive)
GI50 (SNB-75): 12.1 µM (inactive)
GI50 (SF-539): 12.5 µM (inactive)
GI50 (SK-MEL-28): 16.6 µM (inactive)
GI50 (A549): 13 µM (inactive)
GI50 (HOP-18): 13.7 µM (inactive)
GI50 (DMS-114): 13.2 µM (inactive)
GI50 (EKVX): 16 µM (inactive)
GI50 (SW-620): 17.4 µM (inactive)
GI50 (HOP-92): 13.9 µM (inactive)
GI50 (HCT-116): 7.91 µM (inactive)
GI50 (NCI-H460): 18.4 µM (inactive)
GI50 (786-0): 15 µM (inactive)
GI50 (HT-29): 14.7 µM (inactive)
GI50 (DMS-273): 13.6 µM (inactive)
GI50 (U-251): 13.8 µM (inactive)
GI50 (OVCAR-3): 14.3 µM (inactive)
GI50 (COLO 205): 15.3 µM (inactive)
GI50 (SN12C): 15 µM (inactive)
GI50 (M19-MEL): 14.2 µM (inactive)
GI50 (M14): 14 µM (inactive)
GI50 (CCRF-CEM): 16 µM (inactive)
GI50 (HL-60): 13.6 µM (inactive)
GI50 (NCI-H522): > 10 µM (inactive)
GI50 (RXF 631): 15.5 µM (inactive)
GI50 (RPMI-8226): 16.8 µM (inactive)
GI50 (MOLT-4): 10.1 µM (inactive)
GI50 (TK-10): 14.5 µM (inactive)
GI50 (SNB-19): 14.1 µM (inactive)
GI50 (SK-OV-3): 17.1 µM (inactive)
GI50 (HCT-15): 15 µM
GI50 (ACHN): 16.2 µM (inactive)
GI50 (KM-20L2): 15.8 µM (inactive)
